{
  "source": "patent US5952333A",
  "about": "“Quinazoline derivative” (Zeneca Limited, priority 1995, dated 1999)",
  "key": {"[1]": {"molecular_target": "T1, EGF receptor tyrosine kinase (Homo sapiens, UniProt P00533)", "T1 construct": "Receptor tyrosine kinase was obtained in partially purified form from A431 cells; endogenous in cells; host or cells: A431 cells (human vulval carcinoma); Triton X-100-solubilised membrane fraction", "T1 sequence (P00533 25-1210)": "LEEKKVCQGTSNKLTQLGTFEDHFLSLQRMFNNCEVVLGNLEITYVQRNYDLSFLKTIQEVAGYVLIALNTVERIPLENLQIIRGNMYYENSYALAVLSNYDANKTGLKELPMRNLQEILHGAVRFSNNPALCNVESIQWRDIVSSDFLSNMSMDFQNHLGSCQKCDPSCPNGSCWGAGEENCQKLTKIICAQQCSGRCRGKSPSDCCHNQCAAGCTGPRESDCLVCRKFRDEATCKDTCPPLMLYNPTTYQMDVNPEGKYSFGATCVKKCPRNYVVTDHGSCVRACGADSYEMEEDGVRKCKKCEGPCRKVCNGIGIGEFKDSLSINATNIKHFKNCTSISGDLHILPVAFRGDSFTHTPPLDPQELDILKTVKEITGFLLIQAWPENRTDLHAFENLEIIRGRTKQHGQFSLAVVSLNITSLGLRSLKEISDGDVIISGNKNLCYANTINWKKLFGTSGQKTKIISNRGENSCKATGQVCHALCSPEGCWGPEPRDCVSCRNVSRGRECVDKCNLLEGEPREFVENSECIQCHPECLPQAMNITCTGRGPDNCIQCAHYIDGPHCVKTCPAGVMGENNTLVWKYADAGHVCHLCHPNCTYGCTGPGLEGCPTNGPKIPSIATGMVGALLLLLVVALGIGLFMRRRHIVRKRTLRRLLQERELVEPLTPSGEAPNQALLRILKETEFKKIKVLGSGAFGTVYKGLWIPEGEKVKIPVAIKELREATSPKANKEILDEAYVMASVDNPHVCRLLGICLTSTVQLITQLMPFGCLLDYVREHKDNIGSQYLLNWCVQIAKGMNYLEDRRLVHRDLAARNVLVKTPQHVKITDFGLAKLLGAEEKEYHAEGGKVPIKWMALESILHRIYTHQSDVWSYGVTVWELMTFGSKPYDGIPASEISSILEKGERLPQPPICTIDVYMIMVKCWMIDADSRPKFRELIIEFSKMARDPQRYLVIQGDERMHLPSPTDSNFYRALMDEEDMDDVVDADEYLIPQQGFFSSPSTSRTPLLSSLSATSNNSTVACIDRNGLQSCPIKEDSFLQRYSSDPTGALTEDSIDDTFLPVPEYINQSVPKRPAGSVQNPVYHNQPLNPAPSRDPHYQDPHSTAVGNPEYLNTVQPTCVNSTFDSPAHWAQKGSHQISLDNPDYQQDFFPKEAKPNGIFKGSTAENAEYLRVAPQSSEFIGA", "assay": "In vitro inhibition of the enzyme EGF receptor tyrosine kinase (test (a))", "type": "biochemical", "settings": "approximate value, enzyme partially purified from A431 cells, with EGF, 25° C., 10 minutes", "procedure": "(a) An in vitro assay which determines the ability of a test compound to inhibit the enzyme EGF receptor tyrosine kinase. Receptor tyrosine kinase was obtained in partially purified form from A431 cells (derived from human vulval carcinoma) by the procedures described below which are related to those described by Carpenter et al., J. Biol. Chem., 1979, 254,4884, Cohen et al., J. Biol. Chem, 1982, 257, 1523 and by Braun et al., J. Biol. Chem., 1984, 259, 2051.\nA-431 cells were grown to confluence using Dulbecco's modified Eagle's medium (DMEM) containing 5% fetal calf serum (FCS). The obtained cells were homogenised in a hypotonic borate/EDTA buffer at pH 10.1. The homogenate was centrifuged at 400 g for 10 minutes at 0-4° C. The supernatant was centrifuged at 25,000 g for 30 minutes at 0-4° C. […]\nThe test compound/EGF mixture solution (5 μl) was added to the test enzyme solution (10 μl) and the mixture was incubated at 0-4° C. for 30 minutes. […] Radioactivity present in the filter paper was measured using a liquid scintillation counter (Sequence A). […]\nReceptor tyrosine kinase inhibition was calculated as follows: [formula]\nThe extent of inhibition was then determined at a range of concentrations of test compound to give an IC50 value."}, "[2]": {"test_system": "human naso-pharyngeal cancer cell line KB", "assay": "In vitro inhibition of the EGF-stimulated growth of the human naso-pharyngeal cancer cell line KB (test (b))", "type": "cell-based", "settings": "72 h, approximate value, KB cells, EGF (10 ng/ml), 3 days, MTT", "procedure": "(b) An in vitro assay which determines the ability of a test compound to inhibit the EGF-stimulated growth of the human naso-pharyngeal cancer cell line KB.\nKB cells were seeded into wells at a density of 1×10^4 -1.5×10^4 cells per well and grown for 24 hours in DMEM supplemented with 5% FCS (charcoal-stripped). Cell growth was determined after incubation for 3 days by the extent of metabolism of MTT tetrazolium dye to furnish a bluish color. Cell growth was then determined in the presence of EGF (10 ng/ml) or in the presence of EGF (10 ng/ml) and a test compound at a range of concentrations. An IC50 value could then be calculated."}, "[3]": {"test_system": "xenografts of the human vulval epidermoid carcinoma cell line A431", "assay": "In vivo inhibition of growth of A431 xenografts in athymic nude mice (test (c))", "parameters": "species or system athymic nude mice (strain ONU:Alpk); human tumour", "settings": "approximate, daily dose of 50 mg/kg, usually orally, once daily, usually 13 days, relative to untreated controls", "procedure": "(c) An in-vivo assay in a group of athymic nude mice (strain ONU:Alpk) which determines the ability of a test compound (usually administered orally as a ball-milled suspension in 0.5% polysorbate) to inhibit the growth of xenografts of the human vulval epidermoid carcinoma cell line A431. A431 cells were maintained in culture in DMEM supplemented with 5% FCS and 2 mM glutamine. Freshly cultured cells were harvested by trvpsinization and injected subcutaneously (10 million cells/0.1 ml/mouse) into both flanks of a number of donor nude mice. When sufficient tumour material was available (after approximately 9 to 14 days), fragments of tumour tissue were transplanted in the flanks of recipient nude mice (test day 0). Generally, on the seventh day after transplantation (test day 7) groups of 7 to 10 mice with similar-sized tumours were selected and dosing of the test compound was commenced. Once daily dosing of test compound was continued for a total of 13 days (test days 7 to 19 inclusive). In some studies the dosing of the test compound was continued beyond test day 19, for example to test day 26. In each case. on the following test day the animals were killed and the final tumour volume was calculated from measurements of the length and width of the tumours. Results were calculated as a percentage inhibition of tumour volume relative to untreated controls."}, "[4]": {"test_system": "human mammary carcinoma which expresses EGF receptor tyrosine kinase", "settings": "athymic nude mice; Toi et al., 1990; cited from earlier work"}},
  "data": [
    {"compound": "COCCNc1cc2c(Nc3cccc(C)c3)ncnc2cc1OC", "note": "[compound of the invention, 6-(2-methoxyethylamino)-7-methoxy-4-(3'-methylanilino)quinazoline]", "values": [
      {"measurement": "IC50", "setting": "[1]", "result": "~10", "unit": "nM"},
      {"measurement": "IC50", "setting": "[2]", "result": "~200", "unit": "nM"},
      {"measurement": "inhibition of tumour volume", "setting": "[3]", "result": "~50", "unit": "%"}
    ]},
    {"compound": "O=CN/C=C/c1cc(O)ccc1O", "note": "[erbstatin]", "values": [
      {"measurement": "growth of transplanted human mammary carcinoma which expresses EGF receptor tyrosine kinase", "setting": "[4]", "result": "specifically attenuates the growth"}
    ]}
  ]
}
